According to ChEMBL document CHEMBL6121005 (Eur J Med Chem, 2025):
Calls of active or inactive are those of the source. The rule behind the calls is not given here.

Experiments:
[1] = target: T1, Cholinesterase (Homo sapiens, UniProt P06276); experiment: Inhibition of human serum BuChE using butyrylthiocholine iodide as substrate at 10 uM incubated for 10 mins followed by substrate addition by DTNB reagent based Ellman's method relative to control
[2] = target: Acetylcholinesterase (Homo sapiens, UniProt P22303); experiment: Inhibition of human erythrocytes AChE measured after 10 mins by Ellman's method
Sequence of Acetylcholinesterase (P22303 whole entry): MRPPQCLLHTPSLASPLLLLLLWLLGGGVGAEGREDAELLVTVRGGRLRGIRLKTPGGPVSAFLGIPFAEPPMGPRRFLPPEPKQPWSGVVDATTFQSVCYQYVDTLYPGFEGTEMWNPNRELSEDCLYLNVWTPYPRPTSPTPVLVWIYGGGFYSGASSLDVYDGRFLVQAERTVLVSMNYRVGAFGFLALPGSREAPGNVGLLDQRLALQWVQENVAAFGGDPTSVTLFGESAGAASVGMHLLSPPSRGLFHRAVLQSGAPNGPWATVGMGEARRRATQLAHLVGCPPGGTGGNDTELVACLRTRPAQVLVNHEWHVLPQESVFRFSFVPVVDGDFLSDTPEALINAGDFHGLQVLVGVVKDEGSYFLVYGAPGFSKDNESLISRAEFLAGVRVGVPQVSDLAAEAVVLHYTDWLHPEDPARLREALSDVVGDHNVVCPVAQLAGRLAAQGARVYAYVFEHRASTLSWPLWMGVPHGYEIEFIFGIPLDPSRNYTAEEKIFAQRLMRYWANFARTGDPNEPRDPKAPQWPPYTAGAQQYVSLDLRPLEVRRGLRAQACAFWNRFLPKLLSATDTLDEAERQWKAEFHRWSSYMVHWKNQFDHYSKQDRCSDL

[3] = target: T1, Cholinesterase; experiment: Inhibition of human serum BuChE using butyrylthiocholine iodide as substrate incubated for 10 mins followed by substrate addition by DTNB reagent based Ellman's method
[4] = test system: PC-12; experiment: Cytoprotective against rat PC12 cells assessed as cell viability at 50 uM preincubated for 24 hrs and measured after 4 hrs by CCK-8 assay; type: functional, cell-based
[5] = test system: PC-12; experiment: (§1) Neuroprotective activity against H2O2-induced rat PC12 cells assessed as protection against H2O2-induced apoptosis by measuring viable cells at 50 uM pretreated for 2 hrs followed by H2O2 addition and measured after 24 hrs by Annexin V-FITC/PI staining based flow cytometry analysis (reference value: 90.8 %); type: functional; details: time 26 hrs
[6] = test system: PC-12; experiment: as §1, with “early apoptotic” for “viable”, “0.88” for “90.8”; type: functional; details: time 26 hrs
[7] = test system: PC-12; experiment: as §1, with “late apoptotic” for “viable”, “7.26” for “90.8”; type: functional; details: time 26 hrs
[8] = test system: PC-12; experiment: as §1, with “necrotic” for “viable”, “0.99” for “90.8”; type: functional; details: time 26 hrs
[9] = Inhibition of H2O2-induced ROS release in rat PC12 cells assessed as mean fluorescence intensity at 50 uM preincubated for 2 hrs followed by H2O2 addition and measured after 24 hrs by DCFH-DA based flow cytometry analysis (reference value: 23904); type: functional, PC-12; details: time 26 hrs
[10] = Cytotoxicity against rat PC12 cells assessed as cell viability at 50 uM preincubated for 24 hrs and measured after 4 hrs by CCK-8 assay; type: toxicity, cell-based, PC-12; details: time 28 hrs, read-out: Activity
[11] = test system: PC-12; experiment: Antioxidant activity against H2O2-induced toxicity in rat PC12 cells at 12.5 uM preincubated for 2 hrs and measured after 24 hrs by CCK-8 assay; type: functional, cell-based; details: time 26.0 hrs
[12] = test system: Mus musculus; experiment: Antialzheimer activity against amyloid beta (1 to 42)-induced ICR mouse memory impairment model assessed as mean escape latency at 2.5 to 10 mg/kg, po administered daily and measured after 15 to 19 days by Morris water maze test; type: functional, organism-based; details: dose 2.5-10 mg/kg, time 15-19 day
[13] = test system: Mus musculus; experiment: Antialzheimer activity against amyloid beta (1 to 42)-induced ICR mouse memory impairment model assessed as decrease in movement distance at 2.5 to 10 mg/kg, po administered daily and measured after 15 to 19 days by Morris water maze test; type: functional, organism-based; details: dose 2.5-10 mg/kg, time 15-19 day
[14] = test system: Mus musculus; experiment: Antialzheimer activity against amyloid beta (1 to 42)-induced ICR mouse cognitive deficit model assessed as increase in alternation performance at 5 mg/kg, po administered daily and measured on day 12 by Y-maze test relative to control; type: functional; details: time 12 day
[15] = test system: Mus musculus; experiment: Antialzheimer activity in amyloid beta (1 to 42 residues) induced ICR mouse memory impairment model assessed as increase in trajectory after platform removal at 2.5 to 10 mg/kg, po administered daily and measured after 15 to 19 days by Morris water maze test; type: functional, organism-based; details: dose 2.5-10 mg/kg, time 15-19 day
[16] = test system: Mus musculus; experiment: Antialzheimer activity against scopolamine-induced ICR mouse cognitive deficit model assessed as latency time at 2.5 to 10 mg/kg, po administrated daily and measured on initial day of training by Morris water maze test; type: functional; details: dose 2.5-10 mg/kg
[17] = test system: Mus musculus; experiment: Antialzheimer activity against scopolamine-induced ICR mouse cognitive deficit model assessed as decrease in latency time at 2.5 to 10 mg/kg, po administrated daily and measured on last day of training by Morris water maze test; type: functional, organism-based; details: dose 2.5-10 mg/kg
[18] = test system: Mus musculus; experiment: Antialzheimer activity against scopolamine-induced ICR mouse cognitive deficit model assessed as decrease in movement distance at 2.5 to 10 mg/kg, po administrated daily and measured on last day of training by Morris water maze test; type: functional, organism-based; details: dose 2.5-10 mg/kg
[19] = test system: Mus musculus; experiment: Antialzheimer activity in scopolamine-induced ICR mouse assessed as increase in trajectory within target quadrant at 2.5 to 10 mg/kg, po administered daily and measured after 16 to 20 days by Morris water maze test; type: functional, organism-based; details: dose 2.5-10 mg/kg, time 16-20 day
[20] = test system: Mus musculus; experiment: Antialzheimer activity in amyloid beta (1 to 42 residues) induced ICR mouse assessed as increase in distance travelled within target quadrant at 5 mg/kg, po administered daily and measured after 15 to 19 days by Morris water maze test; type: functional, organism-based; details: time 15-19 day
[21] = test system: Mus musculus; experiment: Antialzheimer activity in amyloid beta (1 to 42 residues) induced ICR mouse assessed as increase in time spent within target quadrant at 5 mg/kg, po administered daily and measured after 15 to 19 days by Morris water maze test; type: functional, organism-based; details: time 15-19 day

T1 sequence (P06276 whole entry): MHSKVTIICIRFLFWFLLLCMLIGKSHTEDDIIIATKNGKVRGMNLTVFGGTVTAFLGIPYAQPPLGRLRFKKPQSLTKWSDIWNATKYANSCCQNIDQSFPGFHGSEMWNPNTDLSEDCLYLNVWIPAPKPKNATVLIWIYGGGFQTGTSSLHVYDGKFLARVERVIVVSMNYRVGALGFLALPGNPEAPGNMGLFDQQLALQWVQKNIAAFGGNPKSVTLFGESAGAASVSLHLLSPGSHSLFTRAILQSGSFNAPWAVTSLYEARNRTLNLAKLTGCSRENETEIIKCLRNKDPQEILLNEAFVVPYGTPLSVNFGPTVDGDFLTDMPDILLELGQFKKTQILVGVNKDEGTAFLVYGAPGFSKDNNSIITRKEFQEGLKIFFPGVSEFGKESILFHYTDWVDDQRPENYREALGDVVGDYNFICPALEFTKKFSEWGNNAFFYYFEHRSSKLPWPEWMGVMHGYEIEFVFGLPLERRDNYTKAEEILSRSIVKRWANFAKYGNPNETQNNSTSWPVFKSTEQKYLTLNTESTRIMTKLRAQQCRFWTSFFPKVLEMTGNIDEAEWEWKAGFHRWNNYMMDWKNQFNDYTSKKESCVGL

## COc1ccc2c3c1O[C@H]1C[C@@H](OC(=O)NCc4ccc5ccccc5c4)C=C[C@@]31CCN(C)C2
[1]
  inhibition: 6.44%

## COc1ccc2c3c1O[C@H]1C[C@@H](OC(=O)NCc4ccc([N+](=O)[O-])cc4)C=C[C@@]31CCN(C)C2
[1]
  inhibition: 6.23%

## COc1ccc2c3c1O[C@H]1C[C@@H](OCc4ccc(Cc5cccc(Cl)c5)cn4)C=C[C@@]31CCN(C)C2
[1]
  inhibition: 90.5%
[2]
  IC50: 3.39 µM
[3]
  IC50: 0.913 µM
[4]
  Activity: Active
[5]
  Activity: 72.4%
[6]
  Activity: 10.9%
[7]
  Activity: 15%
[8]
  Activity: 1.45%
[9]
  Flu intensity: 88808
[10]
  viability at 4 h, 50 µM: > 90%

## COc1ccc2c3c1O[C@H]1C[C@@H](OC(=O)NCc4ccc5[nH]ccc5c4)C=C[C@@]31CCN(C)C2
[1]
  inhibition: 3.54%

## COc1ccc2c3c1O[C@H]1C[C@@H](OC(=O)NCc4ccc(F)cc4F)C=C[C@@]31CCN(C)C2
[1]
  inhibition: 13.5%

## COc1ccc2c3c1O[C@H]1C[C@@H](OC(=O)NCc4ccccc4C)C=C[C@@]31CCN(C)C2
[1]
  inhibition: 9.54%

## COc1ccc2c3c1O[C@H]1C[C@@H](OC(=O)NCc4ccc(C)cc4)C=C[C@@]31CCN(C)C2
[1]
  inhibition: 4.99%

## COc1ccc2c3c1O[C@H]1C[C@@H](OCc4ccc(Cc5cccc(F)c5)cn4)C=C[C@@]31CCN(C)C2
[1]
  inhibition: 92.3%
[3]
  IC50: 0.743 µM

## COc1ccc2c3c1O[C@H]1C[C@@H](OC(=O)NC4CCN(Cc5ccc(F)cc5F)CC4)C=C[C@@]31CCN(C)C2
[1]
  inhibition: 19.9%
[2]
  IC50: 1.2 µM

## COc1ccc2c3c1O[C@H]1C[C@@H](OC(=O)NC4CCN(Cc5ccc(F)cc5)CC4)C=C[C@@]31CCN(C)C2
[1]
  inhibition: 21%
[2]
  IC50: 0.399 µM

## COc1ccc2c3c1O[C@H]1C[C@@H](OC(=O)NC4CCN(Cc5ccc(C)cc5)CC4)C=C[C@@]31CCN(C)C2
[1]
  inhibition: 28.7%

## COc1ccc2c3c1O[C@H]1C[C@@H](OC(=O)NC4CCN(Cc5cccc(C(F)(F)F)c5)CC4)C=C[C@@]31CCN(C)C2
[1]
  inhibition: 25.1%
[2]
  IC50: 0.601 µM

## COc1ccc2c3c1O[C@H]1C[C@@H](OC(=O)NC4CCN(Cc5ccc([N+](=O)[O-])cc5)CC4)C=C[C@@]31CCN(C)C2
[1]
  inhibition: 24.6%

## COc1ccc2c3c1O[C@H]1C[C@@H](OC(=O)NC4CCN(Cc5cccc(F)c5)CC4)C=C[C@@]31CCN(C)C2
[1]
  inhibition: 18.6%
[2]
  IC50: 0.419 µM
[4]
  Activity: Active
[5]
  Activity: 82.7%
[6]
  Activity: 5.71%
[7]
  Activity: 10.3%
[8]
  Activity: 1.27%
[9]
  Flu intensity: 52051
[10]
  viability at 4 h, 50 µM: > 90%

## COc1ccc2c3c1O[C@H]1C[C@@H](OC(=O)NC4CCN(Cc5ccccc5)CC4)C=C[C@@]31CCN(C)C2
[1]
  inhibition: 29.2%
[2]
  IC50: 0.37 µM
[11]
  Activity: Dose-dependent-effect
[4]
  Activity: Active
[5]
  Activity: 79.3%
[6]
  Activity: 8.66%
[7]
  Activity: 10.7%
[8]
  Activity: 1.35%
[9]
  Flu intensity: 76256
[10]
  viability at 4 h, 50 µM: > 90%

## COc1ccc2c3c1O[C@H]1C[C@@H](OC(=O)NCc4ccccc4)C=C[C@@]31CCN(C)C2
[1]
  inhibition: 10.4%

## COc1cccc(Cc2ccc(CO[C@H]3C=C[C@@]45CCN(C)Cc6ccc(OC)c(c64)O[C@H]5C3)nc2)c1
[1]
  inhibition: 88.2%
[3]
  IC50: 1.07 µM

## COc1ccc2c3c1O[C@H]1C[C@@H](OC(=O)NCc4cc(F)cc(F)c4)C=C[C@@]31CCN(C)C2
[1]
  inhibition: 4.56%

## COc1ccc2c3c1O[C@H]1C[C@@H](OC(=O)NC4CCN(Cc5ccc(OC(F)(F)F)cc5)CC4)C=C[C@@]31CCN(C)C2
[1]
  inhibition: 26%
[2]
  IC50: 0.451 µM

## COc1ccc2c3c1O[C@H]1C[C@@H](OC(=O)NCc4ccc(C(F)(F)F)cc4)C=C[C@@]31CCN(C)C2
[1]
  inhibition: 14.9%

## Oc1ccc(/C=C/c2cc(O)cc(O)c2)cc1 [RESVERATROL]
[5]
  Activity: 88.3%
[6]
  Activity: 3.58%
[7]
  Activity: 6.38%
[8]
  Activity: 1.79%
[9]
  Flu intensity: 29540

## COc1ccc2c3c1O[C@H]1C[C@@H](OCc4ccc(Cc5ccccc5)cn4)C=C[C@@]31CCN(C)C2
[1]
  inhibition: 91.2%
[3]
  IC50: 1.5 µM

## COc1ccc2c3c1O[C@H]1C[C@@H](OC(=O)NCc4ccc(OC(F)(F)F)cc4)C=C[C@@]31CCN(C)C2
[1]
  inhibition: 18.2%

## COc1ccccc1Cc1ccc(CO[C@H]2C=C[C@@]34CCN(C)Cc5ccc(OC)c(c53)O[C@H]4C2)nc1
[1]
  inhibition: 84.4%
[2]
  IC50: 3.2 µM
[3]
  IC50: 2.66 µM

## COc1ccc2c3c1O[C@H]1C[C@@H](OC(=O)NCc4cccc(F)c4)C=C[C@@]31CCN(C)C2
[1]
  inhibition: 14.6%

## COc1ccc2c3c1O[C@H]1C[C@@H](OC(=O)NCc4ccccc4F)C=C[C@@]31CCN(C)C2
[1]
  inhibition: 18.4%

## COc1ccc2c3c1O[C@H]1C[C@@H](OCc4ccc(Cc5ccc(Cl)cc5)cn4)C=C[C@@]31CCN(C)C2
[1]
  inhibition: 88.7%
[3]
  IC50: 1.03 µM

## COc1ccc2c3c1O[C@H]1C[C@@H](O)C=C[C@@]31CCN(C)C2 [GALANTAMINE]
[4]
  Activity: Active
[5]
  Activity: 70.8%
[6]
  Activity: 11.5%
[7]
  Activity: 17.3%
[8]
  Activity: 1.89%
[9]
  Flu intensity: 89205
[12]
  Activity: Active
[13]
  Activity: Active
[14]
  Activity: 72.92%
[15]
  Activity: Active
[16]
  Time: 60 s
[17]
  Activity: Active
[18]
  Activity: Active
[19]
  Activity: Active
[20]
  Activity: Active
[21]
  Activity: Active

## COc1ccc(Cc2ccc(CO[C@H]3C=C[C@@]45CCN(C)Cc6ccc(OC)c(c64)O[C@H]5C3)nc2)cc1
[1]
  inhibition: 87%
[3]
  IC50: 1.31 µM

## COc1ccc2c3c1O[C@H]1C[C@@H](OCc4ccc(Cc5ccc(F)cc5)cn4)C=C[C@@]31CCN(C)C2
[1]
  inhibition: 90.3%
[3]
  IC50: 1.01 µM

## COc1ccc2c3c1O[C@H]1C[C@@H](OC(=O)NCc4ccc(C#N)cc4)C=C[C@@]31CCN(C)C2
[1]
  inhibition: 2.57%

## COc1ccc2c3c1O[C@H]1C[C@@H](OC(=O)NC4CCN(Cc5ccc(C#N)cc5)CC4)C=C[C@@]31CCN(C)C2
[1]
  inhibition: 21.3%

## COc1cc(CN2CCC(NC(=O)O[C@H]3C=C[C@@]45CCN(C)Cc6ccc(OC)c(c64)O[C@H]5C3)CC2)cc(OC)c1
[1]
  inhibition: 12.9%

## COc1ccc2c3c1O[C@H]1C[C@@H](OC(=O)NCc4ccc(F)cc4)C=C[C@@]31CCN(C)C2
[1]
  inhibition: 12.7%

## COc1ccc2c3c1O[C@H]1C[C@@H](OC(=O)NC4CCN(Cc5ccccc5F)CC4)C=C[C@@]31CCN(C)C2
[1]
  inhibition: 21.6%
[2]
  IC50: 0.406 µM

## COc1ccc(CNC(=O)O[C@H]2C=C[C@@]34CCN(C)Cc5ccc(OC)c(c53)O[C@H]4C2)cc1
[1]
  inhibition: 2.97%

## COc1ccc2c3c1O[C@H]1C[C@@H](OC(=O)NC4CCN(Cc5ccc(Cl)cc5)CC4)C=C[C@@]31CCN(C)C2
[1]
  inhibition: 30.2%

## COc1ccc2c3c1O[C@H]1C[C@@H](OCc4ccc(Cc5ccc(C)cc5)cn4)C=C[C@@]31CCN(C)C2
[1]
  inhibition: 87.4%
[3]
  IC50: 1.35 µM
